In ChEMBL document CHEMBL2439971, “Design, synthesis and antiproliferative evaluation of fluorenone analogs with DNA topoisomerase I inhibitory properties” (Bioorg Med Chem, 2013):
Activity calls are given as the source filed them. No cut-off for these calls is given here.

Assays:
NCI-H522 = assay: Cytotoxicity against human NCI-H522 cells after 48 hrs by sulforhodamine B assay; type: functional; conditions: NCI-H522, 48 h
RXF 393 = assay: Cytotoxicity against human RXF393 cells at 10 uM after 48 hrs by sulforhodamine B assay relative to control; type: functional
NCI/ADR-RES = assay: Cytotoxicity against human NCI/ADR-RES cells at 10 uM after 48 hrs by sulforhodamine B assay relative to control; type: functional
OVCAR-3 = assay: Cytotoxicity against human OVCAR3 cells after 48 hrs by sulforhodamine B assay; type: functional; conditions: OVCAR-3, 48 h
M14 [1] = assay: Cytotoxicity against human M14 cells after 48 hrs by sulforhodamine B assay; type: functional; conditions: M14, 48 h
NCI-H226 [2] = assay: Cytotoxicity against human NCI-H226 cells at 10 uM after 48 hrs by sulforhodamine B assay relative to control; type: functional
HT-29 [3] = assay: Cytotoxicity against human HT-29 cells at 10 uM after 48 hrs by sulforhodamine B assay relative to control; type: functional
IGROV-1 = assay: Cytotoxicity against human IGROV1 cells after 48 hrs by sulforhodamine B assay; type: functional; conditions: IGROV-1, 48 h
MDA-MB-231 [4] = assay: Cytotoxicity against human MDA-MB-231 cells at 10 uM after 48 hrs by sulforhodamine B assay relative to control; type: functional
M14 [5] = assay: Cytotoxicity against human M14 cells at 10 uM after 48 hrs by sulforhodamine B assay relative to control; type: functional
U-251 = assay: Cytotoxicity against human U251 cells after 48 hrs by sulforhodamine B assay; type: functional; conditions: U-251, 48 h
786-0 = assay: Cytotoxicity against human 786-0 cells at 10 uM after 48 hrs by sulforhodamine B assay relative to control; type: functional
HCT-15 = assay: Cytotoxicity against human HCT15 cells at 10 uM after 48 hrs by sulforhodamine B assay relative to control; type: functional
[6] = Cytotoxicity against human EKVX cells at 10 uM after 48 hrs by sulforhodamine B assay relative to control; type: functional
MDA-MB-468 = assay: Cytotoxicity against human MDA-MB-468 cells at 10 uM after 48 hrs by sulforhodamine B assay relative to control; type: functional
NCI-H322M [7] = assay: Cytotoxicity against human NCI-H322M cells at 10 uM after 48 hrs by sulforhodamine B assay relative to control; type: functional
NCI-H322M [8] = assay: Cytotoxicity against human NCI-H322M cells after 48 hrs by sulforhodamine B assay; type: functional
MDA-MB-231 [9] = assay: Cytotoxicity against human MDA-MB-231 cells after 48 hrs by sulforhodamine B assay; type: functional; conditions: MDA-MB-231, 48 h
T47D = assay: Cytotoxicity against human T47D cells at 10 uM after 48 hrs by sulforhodamine B assay relative to control; type: functional
SK-MEL-5 [10] = assay: Cytotoxicity against human SK-MEL-5 cells after 48 hrs by sulforhodamine B assay; type: functional; conditions: SK-MEL-5, 48 h
SW-620 [11] = assay: Cytotoxicity against human SW620 cells after 48 hrs by sulforhodamine B assay; type: functional; conditions: SW-620, 48 h
SW-620 [12] = assay: Cytotoxicity against human SW620 cells at 10 uM after 48 hrs by sulforhodamine B assay relative to control; type: functional
SK-MEL-28 [13] = assay: Cytotoxicity against human SK-MEL-28 cells after 48 hrs by sulforhodamine B assay; type: functional; conditions: SK-MEL-28, 48 h
MDA-MB-435 = assay: Cytotoxicity against human MDA-MB-435 cells at 10 uM after 48 hrs by sulforhodamine B assay relative to control; type: functional
UACC-257 = assay: Cytotoxicity against human UACC257 cells after 48 hrs by sulforhodamine B assay; type: functional; conditions: UACC-257, 48 h
SK-MEL-5 [14] = assay: Cytotoxicity against human SK-MEL-5 cells at 10 uM after 48 hrs by sulforhodamine B assay relative to control; type: functional
LOX IMVI = assay: Cytotoxicity against human LOXIMVI cells after 48 hrs by sulforhodamine B assay; type: functional
NCI-H226 [15] = assay: Cytotoxicity against human NCI-H226 cells after 48 hrs by sulforhodamine B assay; type: functional; conditions: NCI-H226, 48 h
Malme-3M = assay: Cytotoxicity against human MALME-3M cells after 48 hrs by sulforhodamine B assay; type: functional
SF-539 = assay: Cytotoxicity against human SF539 cells after 48 hrs by sulforhodamine B assay; type: functional; conditions: SF-539, 48 h
Homo sapiens = species: Homo sapiens; assay: Inhibition of telomerase (unknown origin) at 10 uM TRAP assay
HT-29 [16] = assay: Cytotoxicity against human HT-29 cells after 48 hrs by sulforhodamine B assay; type: functional; conditions: HT-29, 48 h
DU-145 = assay: Cytotoxicity against human DU145 cells at 10 uM after 48 hrs by sulforhodamine B assay relative to control; type: functional
HCC 2998 = assay: Cytotoxicity against human HCC2998 cells after 48 hrs by sulforhodamine B assay; type: functional; conditions: HCC 2998, 48 h
SK-MEL-28 [17] = assay: Cytotoxicity against human SK-MEL-28 cells at 10 uM after 48 hrs by sulforhodamine B assay relative to control; type: functional
NCI-H23 = assay: Cytotoxicity against human NCI-H23 cells after 48 hrs by sulforhodamine B assay; type: functional; conditions: NCI-H23, 48 h
CAKI-1 = assay: Cytotoxicity against human CAKI-1 cells at 10 uM after 48 hrs by sulforhodamine B assay relative to control; type: functional
NCI-H460 = assay: Cytotoxicity against human NCI-H460 cells after 48 hrs by sulforhodamine B assay; type: functional; conditions: NCI-H460, 48 h
CCRF-CEM = assay: Cytotoxicity against human CCRF-CEM cells after 48 hrs by sulforhodamine B assay; type: functional
[18] = read-out: LC50 (the source's name)

SMILES: CCCCNCC(=O)Nc1ccc2c(c1)C(=O)c1cc(NC(=O)CNCCCC)ccc1-2
- GI50 (NCI-H522): 2.08 µM
- TGI (NCI-H522): 4.08 µM
- CC50 (NCI-H522; [18]): 7.99 µM
- Activity (RXF 393): -76.54%
- Activity (NCI/ADR-RES): 64.82%
- GI50 (OVCAR-3): 1.73 µM
- TGI (OVCAR-3): 3.23 µM
- CC50 (OVCAR-3; [18]): 6.05 µM
- GI50 (M14 [1]): 1.6 µM
- TGI (M14 [1]): 3.08 µM
- CC50 (M14 [1]; [18]): 5.94 µM
- Activity (NCI-H226 [2]): 67.92%
- Activity (HT-29 [3]): -52.59%
- GI50 (IGROV-1): 2.24 µM
- TGI (IGROV-1): 6.53 µM
- CC50 (IGROV-1; [18]): 40.6 µM
- Activity (MDA-MB-231 [4]): -27.12%
- Activity (M14 [5]): -91.02%
- GI50 (U-251): 1.31 µM
- TGI (U-251): 2.65 µM
- CC50 (U-251; [18]): 5.34 µM
- Activity (786-0): -73.24%
- Activity (HCT-15): 24.17%
- Activity [6]: 58.12%
- Activity (MDA-MB-468): -67.44%
- Activity (NCI-H322M [7]): -0.61%
- GI50 (NCI-H322M [8]): 2.12 µM
- TGI (NCI-H322M [8]): 6.93 µM
- CC50 (NCI-H322M [8]; [18]): 31.5 µM
- GI50 (MDA-MB-231 [9]): 1.39 µM
- TGI (MDA-MB-231 [9]): 2.9 µM
- CC50 (MDA-MB-231 [9]; [18]): 6.02 µM
- Activity (T47D): -26.4%
- GI50 (SK-MEL-5 [10]): 1.77 µM
- TGI (SK-MEL-5 [10]): 3.18 µM
- CC50 (SK-MEL-5 [10]; [18]): 5.71 µM
- GI50 (SW-620 [11]): 1.25 µM
- TGI (SW-620 [11]): 3 µM
- CC50 (SW-620 [11]; [18]): 7.16 µM
- Activity (SW-620 [12]): -4.84%
- GI50 (SK-MEL-28 [13]): 1.94 µM
- TGI (SK-MEL-28 [13]): 3.46 µM
- CC50 (SK-MEL-28 [13]; [18]): 6.18 µM
- Activity (MDA-MB-435): -58.56%
- GI50 (UACC-257): 1.87 µM
- TGI (UACC-257): 3.37 µM
- CC50 (UACC-257; [18]): 6.08 µM
- Activity (SK-MEL-5 [14]): -87.04%
- GI50 (LOX IMVI): 1.05 µM
- TGI (LOX IMVI): 2.34 µM
- CC50 (LOX IMVI; [18]): 5.18 µM
- GI50 (NCI-H226 [15]): 10.1 µM
- TGI (NCI-H226 [15]): 23.3 µM
- CC50 (NCI-H226 [15]; [18]): 53.6 µM
- GI50 (Malme-3M): 1.94 µM
- TGI (Malme-3M): 3.98 µM
- CC50 (Malme-3M; [18]): 8.17 µM
- GI50 (SF-539): 1.76 µM
- TGI (SF-539): 3.26 µM
- CC50 (SF-539; [18]): 6.05 µM
- inhibition (Homo sapiens): inactive
- GI50 (HT-29 [16]): 1.1 µM
- TGI (HT-29 [16]): 2.53 µM
- CC50 (HT-29 [16]; [18]): 5.86 µM
- Activity (DU-145): 35.16%
- GI50 (HCC 2998): 1.54 µM
- TGI (HCC 2998): 2.95 µM
- CC50 (HCC 2998; [18]): 5.66 µM
- Activity (SK-MEL-28 [17]): -81.88%
- GI50 (NCI-H23): 2.63 µM
- TGI (NCI-H23): 10.1 µM
- CC50 (NCI-H23; [18]): 35.7 µM
- Activity (CAKI-1): 62.66%
- GI50 (NCI-H460): 1.49 µM
- TGI (NCI-H460): 3.35 µM
- CC50 (NCI-H460; [18]): 7.53 µM
- GI50 (CCRF-CEM): 1.6 µM
- TGI (CCRF-CEM): 4.02 µM
- CC50 (CCRF-CEM; [18]): 10.7 µM
